Among the test systems are A498 renal; LOX IMVI melanoma; NCI-H226 lung; SW-620 colon; MOLT-4 leukemia; UACC-257 melanoma; SNB-75 CNS; KM12 colon; SK-MEL-28 melanoma.
Experiment in all cases: inhibition of tumour cell growth, NCI panel, 48 h

Several values for one entry are separate records, joined by “and”; a condition that tells them apart may be missing. Identical values can stand only once.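 Results reflect a 48-hour exposure of cells in 96-well plates to compound at five concentrations. The concentration for 50% growth inhibition is given as GI50. TGI is the concentration that stops growth completely.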

For the molecule `COC(=O)[C@@H](C)C[C@H](Cc1ccccc1)NC(=O)c1csc(CC[C@H](C(C)C)N(C)C(=O)[C@@H](NC(=O)[C@H]2CCCCN2C)C(C)C)n1`, the GI50 in the test with A498 renal was 190 nM; with LOX IMVI melanoma, 373 nM; with NCI-H226 lung it was 856 nM; in the test on SW-620 colon, 164 nM; in the test with MOLT-4 leukemia, 440 nM; in the test on UACC-257 melanoma, over 33300 nM. The GI50 is 222 nM with SNB-75 CNS, 324 nM in the test with KM12 colon and 1450 nM with SK-MEL-28 melanoma. The TGI is 1.56 µM in the test with A498 renal; over 33.3 µM with LOX IMVI melanoma; over 23.9 µM in the test with NCI-H226 lung; over 33.3 µM in the test on SW-620 colon; over 33.3 µM in the test on MOLT-4 leukemia; over 33.3 µM with UACC-257 melanoma. Also, the TGI in the test on SNB-75 CNS is 9.2 µM; with KM12 colon it was over 33.3 µM; in the test on SK-MEL-28 melanoma, over 33.3 µM.

Regarding `COc1ccc(S(=O)(=O)Nc2ccccc2C(=O)O)cc1`, the TGI with A498 renal, in the test on LOX IMVI melanoma, in the test on NCI-H226 lung, in the test on SW-620 colon, in the test on MOLT-4 leukemia and in the test on UACC-257 melanoma was over 100 µM in each case. The TGI in the test on SNB-75 CNS, in the test on KM12 colon and with SK-MEL-28 melanoma was over 100 µM each time.

`O=C1c2ccccc2C(Br)(Br)c2ccccc21`: the TGI with LOX IMVI melanoma was over 31.6 µM; with NCI-H226 lung, over 31.6 µM; in the test with SW-620 colon it was over 31.6 µM; in the test with MOLT-4 leukemia, over 31.6 µM; in the test on UACC-257 melanoma, over 100 µM; with SNB-75 CNS, over 31.6 µM. Also, the results for the TGI with KM12 colon and in the test with SK-MEL-28 melanoma were over 100 µM and over 31.6 µM, respectively.

For `COc1cccc(-c2cc(=O)c3cc(OC)ccc3[nH]2)c1`, the TGI in the test on A498 renal is 0.111 µM; with NCI-H226 lung, 1.57 µM and 7.23 µM; in the test on SW-620 colon, over 100 µM; with UACC-257 melanoma it was over 100 µM; in the test with KM12 colon, over 100 µM; in the test with SK-MEL-28 melanoma, over 100 µM. In addition, the GI50 is 62.4 nM in the test with LOX IMVI melanoma; 121 nM in the test with NCI-H226 lung; 44.5 nM in the test on SW-620 colon; 41.1 nM in the test on MOLT-4 leukemia; 32.5 nM in the test with UACC-257 melanoma; 67.1 nM in the test on KM12 colon. For the same molecule, the GI50 with SK-MEL-28 melanoma was 612 nM and 85.2 nM.

As to `CC1CCC2(CC1)NN=c1s/c(=C\c3ccc(O)cc3)c(=O)n1N2` (configuration not stated), the TGI with LOX IMVI melanoma, in the test on NCI-H226 lung, in the test on SW-620 colon, in the test on MOLT-4 leukemia, with SNB-75 CNS and in the test on KM12 colon was over 100 µM in each case. The TGI in the test on SK-MEL-28 melanoma was over 100 µM.

Take `CC(=O)[O][Ga]([Cl])[O]C(C)=O`: the GI50 with A498 renal, with LOX IMVI melanoma, in the test with NCI-H226 lung, in the test on SW-620 colon, in the test on MOLT-4 leukemia and in the test on UACC-257 melanoma was over 100000 nM each time. The GI50 with SNB-75 CNS, in the test on KM12 colon and in the test with SK-MEL-28 melanoma was over 100000 nM each time. Besides, the TGI in the test with A498 renal, with LOX IMVI melanoma, in the test on NCI-H226 lung, in the test with SW-620 colon, in the test on MOLT-4 leukemia and with UACC-257 melanoma was over 100 µM throughout. Also, the TGI in the test with SNB-75 CNS, in the test with KM12 colon and in the test with SK-MEL-28 melanoma was over 100 µM in each case.

For `c1cc(N(CCn2cccn2)CCn2cccn2)cc(N(CCn2cccn2)CCn2cccn2)c1`, the TGI with A498 renal, in the test with LOX IMVI melanoma, with SW-620 colon, with MOLT-4 leukemia, in the test with UACC-257 melanoma and with SNB-75 CNS was over 100 µM each time. The TGI in the test on KM12 colon and with SK-MEL-28 melanoma was over 100 µM each time.

As to `COc1ccc2c(CN3CCCCC3CO)cc3cc(OC)c(OC)cc3c2c1` (configuration not stated), the TGI with A498 renal turned out to be 12.7 µM; in the test with LOX IMVI melanoma, 13.7 µM; in the test on NCI-H226 lung, 16.7 µM; in the test with SW-620 colon it was 15.7 µM; with MOLT-4 leukemia it was 14.9 µM; with UACC-257 melanoma it was 13.7 µM. For the same molecule, the TGI in the test with SNB-75 CNS turned out to be 22.1 µM; in the test on KM12 colon, 16.2 µM; with SK-MEL-28 melanoma, 18.6 µM.

Take `CCC[CH2][Sn]1([CH2]CCC)[O]CC(Cc2ccccc2)[O]1` (configuration not stated): the GI50 with A498 renal is 2770 nM; in the test on LOX IMVI melanoma, 1680 nM; in the test with NCI-H226 lung it was 15400 nM; in the test on SW-620 colon, 1630 nM; in the test with MOLT-4 leukemia, 1640 nM; with UACC-257 melanoma it was 1880 nM. The GI50 in the test on SNB-75 CNS was 2760 nM; in the test with KM12 colon, 3770 nM; in the test with SK-MEL-28 melanoma, 1580 nM. The TGI in the test with A498 renal worked out at 8.22 µM; with LOX IMVI melanoma it was 3.63 µM; in the test on NCI-H226 lung, 29.5 µM; with SW-620 colon, 3.48 µM; in the test with MOLT-4 leukemia, 6.07 µM; with UACC-257 melanoma, 5.27 µM. The TGI is 7.74 µM in the test on SNB-75 CNS, 14.4 µM with KM12 colon and 5.24 µM in the test with SK-MEL-28 melanoma.

As for `CCCCCC(=O)C(C)C1=Nc2nnc(CCCCCCCc3nnc4n3C(=O)C(C(C)C(=O)CCCCC)=N4)n2C1=O` (configuration not stated), the TGI in the test on LOX IMVI melanoma, in the test on NCI-H226 lung, with SW-620 colon, in the test with MOLT-4 leukemia, with UACC-257 melanoma and in the test on SNB-75 CNS was over 100 µM throughout. In addition, the TGI with KM12 colon and with SK-MEL-28 melanoma was over 100 µM each time.

Turning to `CCOC(=O)C1N(S(=O)(=O)c2ccc(C)cc2)CCC12c1ccccc1N(C(C)=O)C2c1ccc(OC)c(OC)c1` (configuration not stated), the TGI with A498 renal, in the test on LOX IMVI melanoma, in the test on NCI-H226 lung, in the test on SW-620 colon, with UACC-257 melanoma and in the test with SNB-75 CNS was over 100 µM each time. Also, the TGI in the test with KM12 colon and in the test with SK-MEL-28 melanoma was over 100 µM each time.

On to `COC(=O)/C=C1/CCC(C(=O)OC)N1` (configuration not stated), for which the TGI in the test on A498 renal, with LOX IMVI melanoma, with SW-620 colon, with MOLT-4 leukemia, in the test on UACC-257 melanoma and in the test on SNB-75 CNS was over 100 µM throughout. Further, the TGI in the test with KM12 colon and in the test with SK-MEL-28 melanoma was over 100 µM each time.

These data come from PubChem BioAssay (NCI).
